Each block holds one compound with its values, some of them ahead of it.
What was measured:
[1] = Anticancer activity against human U87 cells assessed as reduction in cell viability incubated for 72 hrs by MTT assay; format: functional, cell-based, U-87MG ATCC; details: U-87 MG
[2] = system: CNE; test: Anticancer activity against human CNE cells assessed as reduction in cell viability incubated for 72 hrs by MTT assay; format: functional, cell-based
[3] = system: THP-1; test: Anticancer activity against human THP-1 cells assessed as reduction in cell viability incubated for 72 hrs by MTT assay; format: functional, cell-based; details: THP-1, 72 h
[4] = system: HEp-2; test: Anticancer activity against human HEp-2 cells assessed as reduction in cell viability incubated for 72 hrs by MTT assay; format: functional, cell-based; details: HEp-2, 72 h
[5] = system: HL-60; test: Anticancer activity against human HL-60 cells assessed as reduction in cell viability incubated for 72 hrs by MTT assay; format: functional, cell-based; details: HL-60, 72 h
[6] = system: A 172; test: Anticancer activity against human A-172 cells assessed as reduction in cell viability incubated for 72 hrs by MTT assay; format: functional, cell-based; details: A 172, 72 h
[7] = system: DBTRG-05MG; test: Cytotoxicity against human DBTRG-05MG cells assessed as inhibition of cell viability incubated for 24 hrs by sulforhodamine B assay; format: functional, cell-based
[8] = system: MDA-MB-231; test: Cytotoxicity against human MDA-MB-231 cells assessed as inhibition of cell viability incubated for 24 hrs by sulforhodamine B assay; format: functional, cell-based; details: MDA-MB-231, 24 h
[9] = system: MCF7; test: Anticancer activity against human MCF7 cells assessed as inhibition of cell viability incubated for 48 hrs by CCK-8 assay; format: functional, cell-based; details: MCF7, 48 h
[10] = system: MDA-MB-231; test: Anticancer activity against human MDA-MB-231 cells assessed as inhibition of cell viability incubated for 48 hrs by CCK-8 assay; format: functional, cell-based; details: MDA-MB-231, 48 h
[11] = system: Calu-1; test: Induction of ferroptosis in human Calu-1 cells assessed as inhibition of (cystine-glutamate antiporter) system Xc- mediated cystine transport; format: functional, cell-based
[12] = system: HT-1080; test: Induction of ferroptosis in human HT-1080 cells assessed as inhibition of (cystine-glutamate antiporter) system Xc- mediated cystine transport; format: functional, cell-based
[13] = Induction of ferroptosis in human BJeLR cells assessed as inhibition of (cystine-glutamate antiporter) system Xc- mediated cystine transport; format: functional, cell-based; details: bjelr cell
[14] = system: HCT-116; test: Antitumor activity against human HCT-116 cells assessed as reduction in cell viability incubated for 48 hrs by CCK8 assay; format: functional, cell-based; details: HCT-116, 48 h
[15] = system: SW480; test: Antitumor activity against human SW480 cells assessed as reduction in cell viability incubated for 48 hrs by CCK8 assay; format: functional, cell-based; details: SW480, 48 h
[16] = system: RKO; test: Antitumor activity against human RKO cells assessed as reduction in cell viability incubated for 48 hrs by CCK8 assay; format: functional, cell-based
[17] = system: MEF; test: Antitumor activity against mouse MEF cells xenografted in nude mouse assessed as reduction in tumor weight at 40 mg/kg, po twice daily for 7 days relative to control; format: functional; set-up: scale not given: the % may be the effect or the level left; details: time 7 day
[18] = system: SK-BR-3; test: Antiproliferative activity against human SK-BR-3 cells assessed as inhibition of cell proliferation incubated for 3 days by sulforhodamine B colorimetric assay; format: functional, cell-based; details: SK-BR-3, 72 h
[19] = Antiproliferative activity against BALB/C mouse TBCP-1 cells assessed as inhibition of cell proliferation incubated for 3 days by sulforhodamine B colorimetric assay; format: functional, cell-based; details: TBCP-1, 72 h
[20] = system: Glioblastoma cell line; test: Induction of ferroptosis in human primary glioblastoma cells assessed as decrease in GPX4 protein expression incubated for 48 hrs by Western blot analysis; format: functional, cell-based
[21] = Induction of ferroptosis in human U-87 MG cells assessed as decrease in GPX4 protein expression incubated for 48 hrs by Western blot analysis; format: functional, cell-based, U-87MG ATCC
[22] = system: SW1990; test: Anticancer activity against human SW1990 cells assessed as reduction in cell viability incubated for 48 hrs by MTT assay; format: functional, cell-based; details: SW1990, 48 h
[23] = system: BXPC-3; test: Anticancer activity against human BXPC-3 cells assessed as reduction in cell viability incubated for 48 hrs by MTT assay; format: functional, cell-based; details: BXPC-3, 48 h
[24] = Anticancer activity against human PHMLER expressing CD24low phenotype cells assessed as reduction in cell viability incubated for 72 hrs; format: functional, cell-based
[25] = system: Huh-7; test: Antitumor activity against human Huh-7 cells assessed as inhibition of cell viability; format: functional, cell-based
[26] = system: Hep 3B2; test: Antitumor activity against human Hep3B cells assessed as inhibition of cell viability; format: functional, cell-based
[27] = system: HT-1080; test: Antitumor activity against human HT-1080 cells assessed as inhibition of cell viability; format: functional, cell-based
[28] = system: HepG2; test: Antitumor activity against human HepG2 cells assessed as inhibition of cell viability; format: functional, cell-based
[29] = system: SW480; test: Anticancer activity against human SW480 cells assessed as reduction in cell viability incubated for 24 hrs in presence of 10% FBS by CCK8 assay; format: functional, cell-based; details: SW480, 24 h
[30] = system: NCI-N87; test: Anticancer activity against human NCI-N87 cells assessed as inhibition of cell viability incubated for 72 hrs by MTT assay; format: functional, cell-based; details: NCI-N87, 72 h
[31] = system: BGC-823; test: Anticancer activity against human BGC-823 cells assessed as inhibition of cell viability incubated for 72 hrs by MTT assay; format: functional, cell-based; details: BGC-823, 72 h
[32] = system: SGC-7901; test: Anticancer activity against human SGC-7901 cells assessed as inhibition of cell viability incubated for 72 hrs by MTT assay; format: functional, cell-based; details: SGC-7901, 72 h

IC50 [3]: 9.05 µM
IC50 [5]: 6.82 µM
SMILES: C[C@H]1[C@@H](O)O[C@@H]2O[C@@]3(C)CC[C@H]4[C@H](C)CC[C@@H]1[C@@]24OO3 [ARTENIMOL]
IC50 [1]: 50 µM
IC50 [2]: 18.4 µM
IC50 [4]: 18.1 µM
IC50 [6]: 66 µM

SMILES: CC(C)(C)c1ccc(S(=O)(=O)/C=C/C#N)cc1 [BAY-11-7085]
IC50 [7]: 5.53 µM
IC50 [8]: 4.31 µM

IC50 [9]: 41.9 µM
IC50 [10]: 53.5 µM
SMILES: COc1cc(/C=C/C(=O)CC(=O)/C=C/c2ccc(O)c(OC)c2)ccc1O [CURCUMIN]

SMILES: CCOc1ccccc1-n1c(C(C)N2CCN(C(=O)COc3ccc(Cl)cc3)CC2)nc2ccccc2c1=O (centres undefined) [ERASTIN]
IC50 [11]: 0.14 µM
IC50 [12]: 0.2 µM
IC50 [13]: 0.625 µM

IC50 [14]: 47.6 µM
IC50 [15]: 15.1 µM
SMILES: C=CCc1ccc(O)c(-c2ccc(O)c(CC=C)c2)c1 [HONOKIOL]
IC50 [16]: 11.4 µM

SMILES: C[C@H](CN1CCCC1)C(=O)c1ccc(C(F)(F)F)cc1 [LANPERISONE]
Activity [17]: 37%

IC50 [18]: 0.0072 µM
SMILES: CCOc1cc2ncc(C#N)c(Nc3ccc(OCc4ccccn4)c(Cl)c3)c2cc1NC(=O)/C=C/CN(C)C [NERATINIB]
IC50 [19]: 0.117 µM

IC50 [20]: 2 µM
IC50 [21]: < 5 µM
SMILES: COc1ccc(/C=C/C(=O)C(CC2CCC2)C(=O)/C=C/c2ccc(OC)c(OC)c2)cc1OC [ROSOLUTAMIDE]

SMILES: C[C@@H]1CC[C@@]2(OC1)O[C@H]1C[C@H]3[C@@H]4CC=C5C[C@@H](O)C[C@@H](O)[C@]5(C)[C@H]4CC[C@]3(C)[C@H]1[C@@H]2C [RUSCOGENIN]
IC50 [22]: 8.14 µM
IC50 [23]: 7.32 µM

SMILES: CC[C@@H](C(=O)[C@@H](C)[C@@H](O)[C@H](C)[C@@H]1O[C@@H]([C@@H](CC)C(=O)O)CC[C@@H]1C)[C@H]1O[C@]2(C=C[C@@H](O)[C@]3(CC[C@@](C)([C@H]4CC[C@](O)(CC)[C@H](C)O4)O3)O2)[C@H](C)C[C@@H]1C [SALINOMYCIN]
IC50 [24]: 1 µM

IC50 [25]: < 10 µM
IC50 [27]: < 10 µM
IC50 [28]: < 10 µM
SMILES: CNC(=O)c1cc(Oc2ccc(NC(=O)Nc3ccc(Cl)c(C(F)(F)F)c3)cc2)ccn1 [SORAFENIB]
IC50 [26]: < 10 µM

IC50 [11]: 460 µM
IC50 [12]: 450 µM
SMILES: O=C(O)c1cc(/N=N/c2ccc(S(=O)(=O)Nc3ccccn3)cc2)ccc1O [SULFASALAZINE]

IC50 [29]: 8.15 µM
SMILES: CCC(C)/C=C(\C)[C@H]1C(C)=C[C@@]2(C)C[C@@H](C)CC[C@@H]2[C@H]1C(=O)C1=C/C(=C/c2ccc(O)cc2)NC1=O (some centres undefined) [TALAROCONVOLUTIN A]

IC50 [31]: 2.8 µM
IC50 [32]: 250 µM
SMILES: Cc1coc2c1C(=O)C(=O)c1c-2ccc2c1CCCC2(C)C [TANSHINONE IIA]
IC50 [30]: 3.1 µM

— ChEMBL document CHEMBL5247631, “Ferroptosis-related small-molecule compounds in cancer therapy: Strategies and applications” (Eur J Med Chem, 2022)
